In PubChem BioAssay AID1918994 (Molecular Pharmacology Branch, DTP, NCI, 2023):
pIC50: −log10 of the molar value.

System: 292921-168-R-J2-PDC complex spheroid growth
Experiment: Anticancer human tumor 292921-168-R-J2-PDC patient-derived pancreatic carcinoma cell line growth inhibition [AhR]
Details: for pIC50: curve of first compound; for viability, T/C: stronger effect = lower value
Method in brief: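 Agents were dosed in half-log steps down from roughly clinical Cmax, or from 10 microM where Cmax was unknown, alone and with AhR antagonists. Read-out: percent test/control growth of tumor spheroids containing HUVEC and MSC stromal cells.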

[1] = second compound 0.1 µM, first compound 0.0316 µM
[2] = second compound 0.1 µM, first compound 0.1 µM
[3] = second compound 0.316 µM, first compound 0.0316 µM
[4] = second compound 0.316 µM, first compound 0.1 µM
[5] = second compound 1 µM, first compound 0.0316 µM
[6] = second compound 1 µM, first compound 0.1 µM
[7] = second compound 3.16 µM, first compound 0.0316 µM
[8] = second compound 3.16 µM, first compound 0.1 µM
[9] = second compound 10 µM, first compound 0.0316 µM
[10] = second compound 10 µM, first compound 0.1 µM
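Note: spheroids exposed to compounds for seven days after three days of growth.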

CC[C@@]1(O)C(=O)OCc2c1cc1n(c2=O)Cc2cc3c(CN(C)C)c(O)ccc3nc2-1 + Cc1ccccc1N=Nc1ccc(NC(=O)c2ccnn2C)c(C)c1
pIC50 (second compound 0.1 µM): 7.64 | pIC50 (second compound 0.316 µM): 7.73 | pIC50 (second compound 1 µM): 7.73 | pIC50 (second compound 3.16 µM): 7.86 | pIC50 (second compound 10 µM): 7.90 | viability, T/C (second compound 0.1 µM, first compound 0.000316 µM): 90.9% | viability, T/C (second compound 0.1 µM, first compound 0.001 µM): 90.8% | viability, T/C (second compound 0.1 µM, first compound 0.00316 µM): 82.5% | viability, T/C (second compound 0.1 µM, first compound 0.01 µM): 79.5% | viability, T/C [1]: 38.7% | viability, T/C [2]: 16.8% | viability, T/C (second compound 0.316 µM, first compound 0.000316 µM): 82.9% | viability, T/C (second compound 0.316 µM, first compound 0.001 µM): 92.5% | viability, T/C (second compound 0.316 µM, first compound 0.00316 µM): 81.2% | viability, T/C (second compound 0.316 µM, first compound 0.01 µM): 66.2% | viability, T/C [3]: 36.2% | viability, T/C [4]: 18.6% | viability, T/C (second compound 1 µM, first compound 0.000316 µM): 86.6% | viability, T/C (second compound 1 µM, first compound 0.001 µM): 88% | viability, T/C (second compound 1 µM, first compound 0.00316 µM): 76.9% | viability, T/C (second compound 1 µM, first compound 0.01 µM): 62.9% | viability, T/C [5]: 39.1% | viability, T/C [6]: 15.6% | viability, T/C (second compound 3.16 µM, first compound 0.000316 µM): 76% | viability, T/C (second compound 3.16 µM, first compound 0.001 µM): 70.4% | viability, T/C (second compound 3.16 µM, first compound 0.00316 µM): 67.1% | viability, T/C (second compound 3.16 µM, first compound 0.01 µM): 58.2% | viability, T/C [7]: 32.8% | viability, T/C [8]: 14.1% | viability, T/C (second compound 10 µM, first compound 0.000316 µM): 54.4% | viability, T/C (second compound 10 µM, first compound 0.001 µM): 61.1% | viability, T/C (second compound 10 µM, first compound 0.00316 µM): 52.6% | viability, T/C (second compound 10 µM, first compound 0.01 µM): 55.6% | viability, T/C [9]: 28.9% | viability, T/C [10]: 16.2%

COc1ccc([C@@H](O)c2cc(-c3ncnc4cc(N5CCOCC5)ccc34)c(F)cc2Cl)nn1 + Cc1cncc(-c2nc(NCCc3c[nH]c4ccccc34)c3ncn(C(C)C)c3n2)c1
pIC50 (second compound 0.1 µM): 5.69 | pIC50 (second compound 0.316 µM): 5.79 | pIC50 (second compound 1 µM): 5.86 | pIC50 (second compound 3.16 µM): 6.22 | pIC50 (second compound 10 µM): > 7.50 | viability, T/C [1]: 81.6% | viability, T/C [2]: 85.2% | viability, T/C (second compound 0.1 µM, first compound 0.316 µM): 68.8% | viability, T/C (second compound 0.1 µM, first compound 1 µM): 67.2% | viability, T/C (second compound 0.1 µM, first compound 3.16 µM): 39.9% | viability, T/C (second compound 0.1 µM, first compound 10 µM): 25.8% | viability, T/C [3]: 80.6% | viability, T/C [4]: 78.2% | viability, T/C (second compound 0.316 µM, first compound 0.316 µM): 81% | viability, T/C (second compound 0.316 µM, first compound 1 µM): 59.7% | viability, T/C (second compound 0.316 µM, first compound 3.16 µM): 36.3% | viability, T/C (second compound 0.316 µM, first compound 10 µM): 26.2% | viability, T/C [5]: 77.7% | viability, T/C [6]: 79% | viability, T/C (second compound 1 µM, first compound 0.316 µM): 62.4% | viability, T/C (second compound 1 µM, first compound 1 µM): 58.7% | viability, T/C (second compound 1 µM, first compound 3.16 µM): 36.3% | viability, T/C (second compound 1 µM, first compound 10 µM): 26% | viability, T/C [7]: 67.1% | viability, T/C [8]: 58.5% | viability, T/C (second compound 3.16 µM, first compound 0.316 µM): 63.7% | viability, T/C (second compound 3.16 µM, first compound 1 µM): 40.2% | viability, T/C (second compound 3.16 µM, first compound 3.16 µM): 32.7% | viability, T/C (second compound 3.16 µM, first compound 10 µM): 23.1% | viability, T/C [9]: 42.7% | viability, T/C [10]: 39.5% | viability, T/C (second compound 10 µM, first compound 0.316 µM): 42.2% | viability, T/C (second compound 10 µM, first compound 1 µM): 32.3% | viability, T/C (second compound 10 µM, first compound 3.16 µM): 25.2% | viability, T/C (second compound 10 µM, first compound 10 µM): 20.5%
